Reference: patent US6642226B2, “Substituted phenyl-piperidine methanone compounds” (Hoffman-La Roche Inc., priority 2001, dated 2003)
Converted amounts (≈) assume the structure as drawn.

What was measured:
[1] = Solubility at pH 6.5 and pH 4.3 (water-solubility); conditions: water (aqueous medium; buffer not named)
[2] = biological target: T1, human NK1 receptor (Homo sapiens, UniProt P25103); assay: NK1 receptor binding, [3H]substance P displacement; conditions: for Ki: read-out: pKi (affinity to the NK-1 receptor) (converted)
T1 construct: expressed in transfected cells; host or cells: CHO cells, Semliki virus expression system; membrane suspension
Description: The affinity of test compounds for the NK1 receptor was evaluated at human NK1 receptors in CHO cells infected with the human NK1 receptor (using the Semliki virus expression system) and radiolabelled with [^3H]substance P (final concentration 0.6 nM). Binding assays were performed in HEPES buffer (50 mM, pH 7.4) containing BSA (0.04%) leupeptin (8 μg/ml), MnCl2 (3 mM) and phosphoramidon (2 μM). Binding assays consisted of 250 μl of membrane suspension (1.25×10^5 cells/assay tube), […] of buffer of displacing agent and 125 μl of [^3H]substance P. Displacement curves were determined with at least seven concentrations of the compound. The assay tubes were incubated for 60 min at room temperature after which time the tube contents were rapidly filtered under vacuum through GF/C filters presoaked for 60 min with PEI (0.3%) with 2×2 ml washes of HEPES buffer (50 mM, pH 7.4). The radioactivity retained on the filters was measured by scintillation counting. All assays were performed in triplicate in at least 2 separate experiments.

[3] = human NK1 receptors in CHO cells, [3H]substance P 0.6 nM

T1 sequence (P25103 whole entry): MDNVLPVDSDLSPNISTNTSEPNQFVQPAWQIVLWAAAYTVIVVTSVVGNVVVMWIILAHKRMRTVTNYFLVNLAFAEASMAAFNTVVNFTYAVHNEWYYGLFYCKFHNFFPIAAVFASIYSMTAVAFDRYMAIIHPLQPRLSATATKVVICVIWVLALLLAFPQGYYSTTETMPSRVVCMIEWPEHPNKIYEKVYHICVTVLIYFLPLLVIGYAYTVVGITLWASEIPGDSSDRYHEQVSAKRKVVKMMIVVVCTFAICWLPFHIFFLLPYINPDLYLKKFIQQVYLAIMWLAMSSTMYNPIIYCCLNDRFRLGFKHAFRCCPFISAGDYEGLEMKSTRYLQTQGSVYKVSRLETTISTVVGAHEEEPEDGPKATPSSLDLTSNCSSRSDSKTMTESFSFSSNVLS

Row | solubility ([1]; pH 4.3, aqueous buffer) [µg/mL] | Ki [2, 3] [nM] | also measured | SMILES
1 | > 7500 | 1.26 |  | O=C(c1cc(C(F)(F)F)cc(C(F)(F)F)c1)N1CC[C@H](N2CCN(CC3CC3)CC2)[C@H](c2ccccc2)C1 (racemic) [Example 36, Rac-cis-(3,5-Bis-trifluoromethyl-phenyl)-[4-(4-cyclopropylmethyl-piperazin-1-yl)-3-phenyl-piperidin-1-yl]-methanone]
2 | > 3500 |  |  | O=C(c1cc(C(F)(F)F)cc(C(F)(F)F)c1)N1CC[C@H](N2CCNCC2)[C@H](c2ccccc2)C1 (racemic) [Example 34, Rac-cis-(3,5-Bis-trifluoromethyl-phenyl)-(3-phenyl-4-piperazin-1-yl-piperidin-1-yl)-methanone]
3 |  | 2.34 |  | Cc1ccc(C2CN(C(=O)c3cc(C(F)(F)F)cc(C(F)(F)F)c3)CCC2N2CCN(C(=O)N3CCOCC3)CC2)cc1 (single isomer, unassigned; (-)) [Example 104, (−)-(3,5-Bis-trifluoromethyl-phenyl)-{4-[4-(morpholine-4-carbonyl)-piperazin-1-yl]-3-p-tolyl-piperidin-1-yl}-methanone]
4 | 1000 (≈ 1870 µM) | 2.14 | solubility ([1]; pH 6.5, aqueous buffer): 780 µg/mL (≈ 1460 µM) | O=C(c1cc(C(F)(F)F)cc(C(F)(F)F)c1)N1CCC(N2CCC(O)CC2)C(c2ccc(Cl)cc2)C1 (racemic) [Example 63, Rac-cis-(3,5-Bis-trifluoromethyl-phenyl)-[3′-(4-chloro-phenyl)-4-hydroxy-[1,4′]bipiperidinyl-1′-yl]-methanone]
5 |  | 3.16 |  | O=C(c1cc(C(F)(F)F)cc(C(F)(F)F)c1)N1CC[C@H](N2CCN(CC3CC3)CC2)[C@H](c2ccc(F)cc2)C1 (racemic) [Example 88, Rac-cis-(3,5-Bis-trifluoromethyl-phenyl)-[4-(4-cyclopropylmethyl-piperazin-1-yl)-3-(4-fluoro-phenyl)-piperidin-1-yl]-methanone]
6 | 2400 (≈ 4640 µM) |  | solubility ([1]; pH 6.5, aqueous buffer): 1000 µg/mL (≈ 1930 µM) | CN1CCN([C@H]2CCN(C(=O)c3cc(C(F)(F)F)cc(C(F)(F)F)c3)C[C@H]2c2ccc(F)cc2)CC1 (racemic) [Example 45, Rac-cis-(3,5-Bis-trifluoromethyl-phenyl)-[3-(4-fluoro-phenyl)-4-(4-methyl-piperazin-1-yl)-piperidin-1-yl]-methanone]
7 |  | 3.16 | relative activity of enantiomer in the test for NK-1 binding ([2]; enantiomer fraction from Chiralpak AD separation of the racemate): more active enantiomer | O=C(c1cc(C(F)(F)F)cc(C(F)(F)F)c1)N1CC[C@@H](N2CCCC2)[C@@H](c2ccc(Cl)cc2)C1 (single isomer, unassigned) [Example 80, (−)-(3,5-Bis-trifluoromethyl-phenyl)-[3-(4-chloro-phenyl)-4-pyrrolidin-1-yl-piperidin-1-yl]-methanone]
8 |  | 0.912 |  | O=C(c1cc(C(F)(F)F)cc(C(F)(F)F)c1)N1CCC(N2CCN(CCO)CC2)C(c2ccccc2)C1 (single isomer, unassigned; (-)) [Example 115, (−)-(3,5-Bis-trifluoromethyl-phenyl)-{4-[4-(2-hydroxy-ethyl)-piperazin-1-yl]-3-phenyl-piperidin-1-yl}-methanone]
9 |  | 1 |  | O=C(c1cc(C(F)(F)F)cc(C(F)(F)F)c1)N1CC[C@@H](N2CCN(C3CC3)CC2)[C@@H](c2ccccc2)C1 (single isomer, unassigned) [Example 119, (−)-(3,5-Bis-trifluoromethyl-phenyl)-[4-(4-cyclopropyl-piperazin-1-yl)-3-phenyl-piperidin-1-yl]-methanone]
10 |  | 2.04 |  | O=C(Cc1ccccc1)NC1CCCN(C2CCN(C(=O)c3cc(C(F)(F)F)cc(C(F)(F)F)c3)CC2c2ccc(F)cc2)C1 (mixture of isomers) [Example 79, (3RS,3′RS,4SR)- and (3RS,3′SR,4SR)-N-[1′-(3,5-Bis-trifluoromethyl-benzoyl)-3′-(4-fluoro-phenyl)-[1,4′]bipiperidinyl-3-yl]-2-phenyl-acetamide]
11 |  | 0.457 |  | Cc1ccc(C2CN(C(=O)c3cc(C(F)(F)F)cc(C(F)(F)F)c3)CCC2N2CCN(C)CC2)cc1 (single isomer, unassigned; (-)) [Example 111, (−)-(3,5-Bis-trifluoromethyl-phenyl)-[4-(4-methyl-piperazin-1-yl)-3-p-tolyl-piperidin-1-yl]-methanone]
12 |  | 2.09 |  | O=C(c1cc(C(F)(F)F)cc(C(F)(F)F)c1)N1CC[C@H](N2CCNCC2)[C@H](c2ccc(F)cc2)C1 (racemic) [Example 82, Rac-cis-(3,5-Bis-trifluoromethyl-phenyl)-[3-(4-fluoro-phenyl)-4-piperazin-1-yl-piperidin-1-yl]-methanone]
13 |  | 0.363 |  | O=C(c1cc(C(F)(F)F)cc(C(F)(F)F)c1)N1CCC(N2CCN(CC3CC3)CC2)C(c2ccccc2)C1 (single isomer, unassigned; (-)) [Example 114, (−)-(3,5-Bis-trifluoromethyl-phenyl)-[4-(4-cyclopropylmethyl-piperazin-1-yl)-3-phenyl-piperidin-1-yl]-methanone]
14 | > 8400 | 3.09 | solubility ([1]; pH 6.5, aqueous buffer): 910 µg/mL (≈ 1820 µM) | CN1CCN([C@H]2CCN(C(=O)c3cc(C(F)(F)F)cc(C(F)(F)F)c3)C[C@H]2c2ccccc2)CC1 (racemic) [Example 27, Rac-cis-(3,5-Bis-trifluoromethyl-phenyl)-[4-(4-methyl-piperazin-1-yl)-3-phenyl-piperidin-1-yl]-methanone]
15 |  |  | Solubility at pH 4.3 (pH 4.3): 5.5 mg/mL; Solubility at pH 6.5 (pH 6.5): 0.43 mg/mL; pKi (affinity to the NK-1 receptor) [2, 3]: 9.28 | Cc1ccc(C2CN(C(=O)c3cc(C(F)(F)F)cc(C(F)(F)F)c3)CCC2N2CCN(CC3CC3)CC2)cc1 (single isomer, unassigned; (-)) [Example 102, (−)-4-(3,5-Bis-trifluoromethyl-phenyl)-[4-(4-cyclopropylmethyl-piperazin-1-yl)-3-p-tolyl-piperidin-1-yl]-methanone]
16 |  | 2.95 |  | O=C(NC1CCCN(C2CCN(C(=O)c3cc(C(F)(F)F)cc(C(F)(F)F)c3)CC2c2ccc(F)cc2)C1)C1CC1 (mixture of isomers) [Example 77, (3RS,3′RS,4SR)- and (3RS,3′SR,4SR)-Cyclopropanecarboxylic acid [1′-(3,5-bis-trifluoromethyl-benzoyl)-3′-(4-fluoro-phenyl)-[1,4′]bipiperidinyl-3-yl]-amide]
